{"source": "patent US12544365B2", "about": "“Pharmaceutical combination of an EP4 antagonist and immune checkpoint inhibitors for the treatment of tumours” (ROTTAPHARM BIOTECH S.R.L., priority 2019, dated 2026)", "key": {"[1]": {"biological_target": "human recombinant EP4 receptor (Homo sapiens, UniProt P35408)", "sequence (P35408 whole entry)": "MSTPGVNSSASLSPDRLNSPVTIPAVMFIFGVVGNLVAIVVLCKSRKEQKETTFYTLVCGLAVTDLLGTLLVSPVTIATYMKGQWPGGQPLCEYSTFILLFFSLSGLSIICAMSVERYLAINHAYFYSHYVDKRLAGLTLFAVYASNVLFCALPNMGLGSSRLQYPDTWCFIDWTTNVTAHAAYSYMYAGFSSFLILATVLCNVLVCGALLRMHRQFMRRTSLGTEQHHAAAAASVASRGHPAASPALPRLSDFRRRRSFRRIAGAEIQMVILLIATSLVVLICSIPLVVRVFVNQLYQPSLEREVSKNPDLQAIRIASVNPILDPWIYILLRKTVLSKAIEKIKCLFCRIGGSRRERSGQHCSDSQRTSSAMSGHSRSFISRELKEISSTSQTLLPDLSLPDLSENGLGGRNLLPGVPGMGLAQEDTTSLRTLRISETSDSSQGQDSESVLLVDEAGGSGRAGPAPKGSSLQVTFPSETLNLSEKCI", "assay": "[3H]-PGE2 specific binding on human recombinant EP4 receptor (HEK293 membranes)", "method": "Cell membranes were prepared from HEK293 cell line (Human Embryonic Kidney 293) stably overexpressing human recombinant EP4 receptor. Cells grow adherent in DMEM with Glutamax | containing 10% FBS at 37° C. with 5% CO2. For membranes preparation, culture medium was aspirated from 150 cm^2 flasks in which cells were seeded. Cell monolayers were washed with 10 ml of hypotonic lysis buffer (TRIS 5 mM+EDTA 5 mM-pH 7.4), then cells were detached and lysed with the same buffer and by mechanical scraping. Lysates were centrifuged at 40000×g at 4° C. for 22 min. Pellets were stored at −80° C. until the use.\n[3H]-Prostaglandin E2 ([3H]-PGE2) binding assays were performed in 10 mM MES-KOH buffer pH6, containing 10 mM MgCl2 and 1 mM CaCl2. Ten microgram of protein from membrane fractions are incubated in a total volume of 0.1 ml with 1 nM [3H]-PGE2. In order to determine the total binding or the non specific binding, 1% DMSO or 1 μM PGE2 were added to reaction mixtures, respectively. The specific binding represented >85% of total binding. In competition curves, the diluent was substituted by the test compounds (8 concentration spanning at least 2 order of magnitude; points in duplicates). In an independent series of experiments, competition curves of the same compounds were performed in the presence of Bovine Serum Albumin 0.5%. Incubation was carried out in a 96 multiwell plate for 90 min at room temperature, prior to separation of the bound and free radioligand by rapid filtration on glass fiber filters (Unifilter GFB96, PerkinElmer Inc) pre-soaked in 0.3% polyethyleneimine. Filters were washed with ice cold buffer pH 7.4 (50 mM HEPES, NaCl 500 mM, BSA 0.1%), dried for 30 minutes at 30° C. and then 0.1 ml of MICROSCINT-20 (PerkinElmer Inc) were added. The residual [3H]-PGE2 binding was determined by solid scintillation counter (TopCount, PerkinElmer Inc), after at least 1 hour of stabilization. Results of the competition curves were expressed as IC50 and the corresponding Ki were calculated according to the Chang-Prousoff equation. Finally the Ki value was transformed in pKi (the negative log of Ki)."}, "CT26 cancer cell tumours": {"system": "CT26 cancer cell tumours", "assay": "CT26 syngeneic model of mouse colorectal cancer in Balb/c mice", "assay_type": "in vivo", "details": "compounds 30 mg/kg oral daily day 7-23; anti PD-1 i.p. 20 mg/kg day 8, 10 mg/kg days 13, 19, 22", "method": "Male Balb/c mice 4-6 weeks old were housed five per cage in a temperature and humidity controlled room with a 12h/12h light/dark cycle. Throughout the experiment the animals had free access to food and water. The Balb/c mice were randomly divided into 6 groups (n=15 in each group): vehicle, Compound 1, Compound 2, anti PD-1, Compound 1+anti PD-1, Compound 2+anti PD-1 group.\nCT26 cells were purchased from ATCC and cultured in Dulbecco's Modified Eagle's Medium (DMEM; ThermoFisher Scientific) supplemented with 10% fetal bovine serum (FBS; Sigma Aldrich) at 37° C. in an incubator with 5% CO2. Cells were sub-cultured twice a week until the number of cells needed for inoculation was obtained.\nOn the day of transplantation (day 0) logarithmic growing phase cells were harvested, diluted in PBS and 10^6 cells in 0.2 ml of PBS were subcutaneously inoculated into the lateral abdominal region of each mouse using a 26G syringe.\nOn day 7 after inoculation the mice were randomized into the 6 treatment groups each of 15 animals receiving respectively vehicle, Compound 1, Compound 2, anti PD-1 and the combination therapies. […]\nTumour sizes (mm^3) were evaluated twice a week by using a digital caliper. The tumour volumes were calculated measuring the tumour lengths along the major and minor axis and using the formula: Volume=[[…]]/2."}}}
{"molecule": "O=C([O-])c1ccc(C2(NC(=O)[C@H]3CCCCN3Cc3ccc(C(F)(F)F)cc3)CC2)cc1.[Na+]", "note": "[Compound 2, (R)-4-(1-(1-(4-(trifluoromethyl)benzyl)piperidine-2-carboxamido)cyclopropyl)benzoic acid, Sodium salt]", "values": [{"measurement": "Ki", "setting": "[1]; BSA 0.5%", "result": 200, "unit": "nM"}, {"measurement": "lower affinity in the presence of proteins (BSA)", "setting": "[1]; BSA 0.5% vs none", "result": 6, "unit": "fold"}, {"measurement": "Ki", "setting": "[1]; None (absence of BSA)", "result": 31.6, "unit": "nM"}, {"measurement": "effect on tumour growth (tumour volume)", "setting": "CT26 cancer cell tumours", "result": "only showed a slight impairment of tumour growth"}]}
